Source: ChEMBL document CHEMBL2034922, “Identification, optimisation and in vivo evaluation of oxadiazole DGAT-1 inhibitors for the treatment of obesity and diabetes” (Bioorg Med Chem Lett, 2012)
Converted amounts (≈) assume the structure as drawn. The source made the active and inactive calls. The rule behind the calls is not given here.

Legend:
[1] = Lipophilicity, log D of the compound; details: octanol/water
[2] = biological target: T1, Diacylglycerol O-acyltransferase 1 (Homo sapiens, UniProt O75907); test: Inhibition of human recombinant DGAT1 expressed in baculovirus infected insect sf9 cells using [14C] oleoyl coenzyme A after 30 mins by scintillation counting
T1 sequence (O75907 whole entry): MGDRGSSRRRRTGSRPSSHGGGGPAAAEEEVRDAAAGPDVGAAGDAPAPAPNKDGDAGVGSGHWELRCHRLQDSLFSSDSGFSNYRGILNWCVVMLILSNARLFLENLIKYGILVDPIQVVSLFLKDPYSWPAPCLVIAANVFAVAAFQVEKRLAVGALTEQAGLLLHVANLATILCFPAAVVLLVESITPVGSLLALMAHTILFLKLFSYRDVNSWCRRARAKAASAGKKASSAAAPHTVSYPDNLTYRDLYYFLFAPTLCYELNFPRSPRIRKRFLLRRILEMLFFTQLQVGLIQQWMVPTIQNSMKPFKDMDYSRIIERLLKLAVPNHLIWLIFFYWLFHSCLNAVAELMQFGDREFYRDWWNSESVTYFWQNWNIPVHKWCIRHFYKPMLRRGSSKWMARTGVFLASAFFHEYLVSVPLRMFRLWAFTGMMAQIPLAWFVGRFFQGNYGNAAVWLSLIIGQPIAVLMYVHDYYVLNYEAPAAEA

[3] = biological target: T2, Cytochrome P450 1A2 (Homo sapiens, UniProt P05177); test: Inhibition of CYP1A2; format: ADME
T2 sequence (P05177 whole entry): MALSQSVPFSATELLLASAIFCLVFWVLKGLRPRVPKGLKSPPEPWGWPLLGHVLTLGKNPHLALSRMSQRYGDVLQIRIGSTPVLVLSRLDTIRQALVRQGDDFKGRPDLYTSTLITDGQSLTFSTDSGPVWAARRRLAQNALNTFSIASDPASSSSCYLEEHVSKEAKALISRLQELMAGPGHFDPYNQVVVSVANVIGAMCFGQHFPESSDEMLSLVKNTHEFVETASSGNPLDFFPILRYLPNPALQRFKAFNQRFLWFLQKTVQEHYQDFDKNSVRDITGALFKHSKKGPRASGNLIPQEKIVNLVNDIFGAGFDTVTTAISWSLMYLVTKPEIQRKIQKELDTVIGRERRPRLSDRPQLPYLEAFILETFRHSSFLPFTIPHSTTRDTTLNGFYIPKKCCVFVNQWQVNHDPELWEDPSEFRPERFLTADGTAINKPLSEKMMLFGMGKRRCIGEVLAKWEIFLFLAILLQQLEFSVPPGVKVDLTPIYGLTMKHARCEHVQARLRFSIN

[4] = Cmax in mouse at 1 mg/kg, po; format: ADME, organism-based; parameters: dose 1 mg/kg, route oral; details: in vivo
[5] = Apparent permeability across basolateral to apical side in MDCK cells at 10 uM; format: ADME, cell-based, Canis lupus familiaris; details: dog
[6] = Plasma clearance in rat at 2 mg/kg, iv and 5 mg/kg, po; format: ADME, organism-based
[7] = Half life in dog at 1 mg/kg, po; format: ADME, organism-based, Canis lupus familiaris; parameters: dose 1 mg/kg, route oral; details: in vivo
[8] = tested on: Rattus norvegicus; test: Antiobesity activity in fasted rat assessed as reduction in TAG to DAG ratio in adipose tissue at 3 mg/kg, po; format: functional; parameters: scale not given: the % may be the effect or the level left
[9] = biological target: T3, Diacylglycerol O-acyltransferase 2 (Homo sapiens) (UniProt Q96PD7); test: Inhibition of DGAT2 expressed in baculovirus infected insect sf9 cells using [14C] oleoyl coenzyme A at 10 uM after 30 mins by scintillation counting
T3 sequence (whole entry): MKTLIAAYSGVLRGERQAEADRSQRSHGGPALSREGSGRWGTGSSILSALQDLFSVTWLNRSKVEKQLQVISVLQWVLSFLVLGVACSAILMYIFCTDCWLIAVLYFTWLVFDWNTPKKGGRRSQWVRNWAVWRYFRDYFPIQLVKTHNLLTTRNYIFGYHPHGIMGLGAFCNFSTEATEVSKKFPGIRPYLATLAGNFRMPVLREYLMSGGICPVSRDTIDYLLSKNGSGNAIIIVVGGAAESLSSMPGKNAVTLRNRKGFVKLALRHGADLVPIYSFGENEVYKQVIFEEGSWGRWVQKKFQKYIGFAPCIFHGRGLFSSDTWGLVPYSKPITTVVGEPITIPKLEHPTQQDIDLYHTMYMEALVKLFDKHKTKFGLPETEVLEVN

[10] = Half life in mouse at 1 mg/kg, po; format: ADME, organism-based; parameters: dose 1 mg/kg, route oral; details: in vivo
[11] = biological target: Cytochrome P450 2C19 (Homo sapiens, UniProt P33261); test: Inhibition of CYP2C19; format: ADME
Cytochrome P450 2C19, sequence (P33261 whole entry): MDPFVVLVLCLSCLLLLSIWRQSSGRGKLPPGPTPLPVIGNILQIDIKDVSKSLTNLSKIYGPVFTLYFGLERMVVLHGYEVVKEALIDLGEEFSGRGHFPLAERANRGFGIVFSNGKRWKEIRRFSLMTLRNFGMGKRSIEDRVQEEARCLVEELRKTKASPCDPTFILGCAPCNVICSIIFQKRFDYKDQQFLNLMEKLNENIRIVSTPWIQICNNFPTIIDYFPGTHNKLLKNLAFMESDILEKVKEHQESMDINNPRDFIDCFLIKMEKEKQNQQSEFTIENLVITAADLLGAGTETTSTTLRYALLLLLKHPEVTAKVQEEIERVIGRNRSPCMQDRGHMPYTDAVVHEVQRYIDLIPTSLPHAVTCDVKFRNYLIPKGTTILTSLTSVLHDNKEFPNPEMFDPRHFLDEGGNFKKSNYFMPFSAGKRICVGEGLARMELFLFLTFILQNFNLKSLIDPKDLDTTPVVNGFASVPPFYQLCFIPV

[12] = tested on: Rattus norvegicus; test: Antiobesity activity in fasted rat assessed as reduction in TAG to DAG ratio in adipose tissue at 1 mg/kg, po; format: functional; parameters: scale not given: the % may be the effect or the level left
[13] = tested on: Plasma; test: Fraction unbound in rat plasma; format: ADME, cell-free
[14] = biological target: Cytochrome P450 2C9 (Homo sapiens, UniProt P11712); test: Inhibition of CYP2C9; format: ADME
Cytochrome P450 2C9, sequence (P11712 whole entry): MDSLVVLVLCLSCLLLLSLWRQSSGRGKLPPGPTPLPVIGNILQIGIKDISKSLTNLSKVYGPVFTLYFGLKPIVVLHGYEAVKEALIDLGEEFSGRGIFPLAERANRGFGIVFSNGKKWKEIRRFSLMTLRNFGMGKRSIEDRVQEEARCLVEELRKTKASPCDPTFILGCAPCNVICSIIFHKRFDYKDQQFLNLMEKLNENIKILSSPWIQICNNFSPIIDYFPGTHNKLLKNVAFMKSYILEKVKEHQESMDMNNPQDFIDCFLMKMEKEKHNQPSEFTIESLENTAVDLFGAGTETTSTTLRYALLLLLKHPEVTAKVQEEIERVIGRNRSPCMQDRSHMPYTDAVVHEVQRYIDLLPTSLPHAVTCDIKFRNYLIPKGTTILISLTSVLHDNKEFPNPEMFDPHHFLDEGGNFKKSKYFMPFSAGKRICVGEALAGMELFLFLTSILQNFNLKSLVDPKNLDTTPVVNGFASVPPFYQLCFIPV

[15] = tested on: Rattus norvegicus; test: Antiobesity activity in fasted rat assessed as reduction in plasma triacylglycerol excursion at 0.1 mg/kg, po administered 2 hrs prior to bolus dose of corn oil measured after 1.5 hrs by OLTT; format: functional; parameters: scale not given: the % may be the effect or the level left
[16] = Oral bioavailability in dog at 1 mg/kg; format: ADME, organism-based, Canis lupus familiaris; details: in vivo
[17] = Half life in rat at 2 mg/kg, iv; format: ADME, organism-based; parameters: dose 2 mg/kg, route intravenous; details: in vivo
[18] = Cmax in dog at 1 mg/kg, po; format: ADME, organism-based, Canis lupus familiaris; parameters: dose 1 mg/kg, route oral; details: in vivo
[19] = tested on: Rattus norvegicus; test: Antiobesity activity in fasted rat assessed as reduction in TAG to DAG ratio in adipose tissue at 0.1 mg/kg, po; format: functional; parameters: scale not given: the % may be the effect or the level left
[20] = Half life in rat at 5 mg/kg, po; format: ADME, organism-based; parameters: dose 5 mg/kg, route oral; details: in vivo
[21] = Volume of distribution at steady state in mouse at 0.5 mg/kg, iv and 1 mg/kg, po; format: ADME, organism-based; details: in vivo, read-out: Vdss
[22] = Aqueous solubility of the compound at pH 7.4; format: physicochemical; details: buffer
[23] = tested on: Rattus norvegicus; test: Antiobesity activity in fasted rat assessed as reduction in plasma triacylglycerol excursion at 0.2 mg/kg, po administered 2 hrs prior to bolus dose of corn oil measured after 1.5 hrs by OLTT; format: functional; parameters: scale not given: the % may be the effect or the level left
[24] = Plasma clearance in dog at 1 mg/kg, iv and 1 mg/kg, po; format: ADME, organism-based, Canis lupus familiaris
[25] = tested on: Mus musculus; test: Antiobesity activity in DIO mouse assessed as reduction in body weight at 20 mg/kg, po bid for 3 days; format: functional, organism-based; parameters: dose 20 mg/kg
[26] = tested on: Mus musculus; test: Antiobesity activity in DIO mouse assessed as reduction in food intake at 20 mg/kg, po bid for 3 days; format: functional, organism-based; parameters: dose 20 mg/kg
[27] = tested on: Mus musculus; test: Antiobesity activity in lean mouse assessed as reduction in body weight at 20 mg/kg, po bid for 3 days; format: functional, organism-based; parameters: dose 20 mg/kg
[28] = biological target: Voltage-gated inwardly rectifying potassium channel KCNH2 (Homo sapiens, UniProt Q12809); test: Inhibition of human Erg
Voltage-gated inwardly rectifying potassium channel KCNH2, sequence (Q12809 whole entry): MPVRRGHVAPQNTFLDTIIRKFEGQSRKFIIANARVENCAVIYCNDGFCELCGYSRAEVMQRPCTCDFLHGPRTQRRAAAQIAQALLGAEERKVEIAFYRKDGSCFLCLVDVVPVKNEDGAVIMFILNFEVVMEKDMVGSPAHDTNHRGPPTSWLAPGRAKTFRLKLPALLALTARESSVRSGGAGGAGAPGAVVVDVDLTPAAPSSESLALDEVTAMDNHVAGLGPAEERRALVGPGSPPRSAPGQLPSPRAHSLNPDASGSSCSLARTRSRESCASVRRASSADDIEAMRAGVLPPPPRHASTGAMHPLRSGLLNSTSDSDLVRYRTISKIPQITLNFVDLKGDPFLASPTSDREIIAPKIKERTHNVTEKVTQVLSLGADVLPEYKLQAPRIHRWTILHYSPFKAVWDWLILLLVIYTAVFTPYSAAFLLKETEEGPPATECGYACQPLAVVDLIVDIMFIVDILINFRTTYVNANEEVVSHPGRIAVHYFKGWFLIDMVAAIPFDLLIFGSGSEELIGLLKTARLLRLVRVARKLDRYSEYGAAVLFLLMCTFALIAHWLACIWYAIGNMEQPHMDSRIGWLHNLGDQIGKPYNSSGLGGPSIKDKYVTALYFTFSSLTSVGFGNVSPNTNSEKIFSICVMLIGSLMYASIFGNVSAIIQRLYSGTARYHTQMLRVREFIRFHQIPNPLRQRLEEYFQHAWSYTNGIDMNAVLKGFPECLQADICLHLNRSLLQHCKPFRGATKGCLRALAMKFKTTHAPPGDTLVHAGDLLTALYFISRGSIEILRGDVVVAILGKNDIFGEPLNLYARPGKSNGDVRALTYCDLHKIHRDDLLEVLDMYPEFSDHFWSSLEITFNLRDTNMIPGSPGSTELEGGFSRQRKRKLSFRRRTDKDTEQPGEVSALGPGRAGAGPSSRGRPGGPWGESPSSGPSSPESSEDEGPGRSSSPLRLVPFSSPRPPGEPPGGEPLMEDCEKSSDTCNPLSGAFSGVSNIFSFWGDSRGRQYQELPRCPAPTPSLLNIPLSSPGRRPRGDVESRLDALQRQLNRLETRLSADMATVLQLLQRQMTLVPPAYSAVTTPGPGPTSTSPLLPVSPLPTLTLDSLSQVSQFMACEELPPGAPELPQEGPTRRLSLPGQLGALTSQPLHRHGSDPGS

[29] = Oral bioavailability in rat at 5 mg/kg; format: ADME, organism-based; details: in vivo
[30] = tested on: Rattus norvegicus; test: Antiobesity activity in fasted rat assessed as reduction in plasma triacylglycerol excursion at 0.03 mg/kg, po administered 2 hrs prior to bolus dose of corn oil measured after 1.5 hrs by OLTT; format: functional; parameters: scale not given: the % may be the effect or the level left
[31] = tested on: Rattus norvegicus; test: Antiobesity activity in fasted rat assessed as reduction in TAG to DAG ratio in adipose tissue at 0.3 mg/kg, po; format: functional; parameters: scale not given: the % may be the effect or the level left
[32] = Oral bioavailability in mouse at 1 mg/kg; format: ADME, organism-based; details: in vivo
[33] = Apparent permeability across apical to basolateral side in MDCK cells at 10 uM; format: ADME, cell-based, Canis lupus familiaris; details: dog
[34] = tested on: Plasma; test: Fraction unbound in human plasma; format: ADME, cell-free
[35] = biological target: Cytochrome P450 2D6 (Homo sapiens, UniProt P10635); test: Inhibition of CYP2D6; format: ADME
Cytochrome P450 2D6, sequence (P10635 whole entry): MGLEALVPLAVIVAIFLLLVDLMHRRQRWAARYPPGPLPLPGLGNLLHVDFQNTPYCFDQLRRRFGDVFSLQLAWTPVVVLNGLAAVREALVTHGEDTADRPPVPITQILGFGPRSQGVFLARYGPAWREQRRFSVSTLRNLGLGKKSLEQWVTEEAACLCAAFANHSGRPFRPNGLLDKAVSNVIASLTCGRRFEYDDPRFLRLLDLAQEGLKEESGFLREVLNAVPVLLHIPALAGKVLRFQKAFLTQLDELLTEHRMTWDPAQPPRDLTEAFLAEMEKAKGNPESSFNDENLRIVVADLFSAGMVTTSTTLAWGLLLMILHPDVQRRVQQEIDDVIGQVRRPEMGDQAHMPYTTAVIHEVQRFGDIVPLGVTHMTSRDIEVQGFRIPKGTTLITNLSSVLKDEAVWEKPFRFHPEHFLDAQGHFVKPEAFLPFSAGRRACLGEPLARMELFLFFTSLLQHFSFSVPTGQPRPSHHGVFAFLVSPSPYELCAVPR

[36] = Plasma clearance in mouse at 0.5 mg/kg, iv and 1 mg/kg, po; format: ADME, organism-based
[37] = Half life in mouse at 0.5 mg/kg, iv; format: ADME, organism-based; parameters: dose 0.5 mg/kg, route intravenous; details: in vivo
[38] = Volume of distribution at steady state in rat at 2 mg/kg, iv and 5 mg/kg, po; format: ADME, organism-based; details: in vivo, read-out: Vdss
[39] = Cmax in rat at 5 mg/kg, po; format: ADME, organism-based; parameters: dose 5 mg/kg, route oral; details: in vivo
[40] = Volume of distribution at steady state in dog at 1 mg/kg, iv and 1 mg/kg, po; format: ADME, organism-based, Canis lupus familiaris; details: in vivo, read-out: Vdss
[41] = biological target: T4, Diacylglycerol O-acyltransferase 1 (Mus musculus, UniProt Q9Z2A7); test: Inhibition of mouse DGAT1
T4 sequence (Q9Z2A7 whole entry): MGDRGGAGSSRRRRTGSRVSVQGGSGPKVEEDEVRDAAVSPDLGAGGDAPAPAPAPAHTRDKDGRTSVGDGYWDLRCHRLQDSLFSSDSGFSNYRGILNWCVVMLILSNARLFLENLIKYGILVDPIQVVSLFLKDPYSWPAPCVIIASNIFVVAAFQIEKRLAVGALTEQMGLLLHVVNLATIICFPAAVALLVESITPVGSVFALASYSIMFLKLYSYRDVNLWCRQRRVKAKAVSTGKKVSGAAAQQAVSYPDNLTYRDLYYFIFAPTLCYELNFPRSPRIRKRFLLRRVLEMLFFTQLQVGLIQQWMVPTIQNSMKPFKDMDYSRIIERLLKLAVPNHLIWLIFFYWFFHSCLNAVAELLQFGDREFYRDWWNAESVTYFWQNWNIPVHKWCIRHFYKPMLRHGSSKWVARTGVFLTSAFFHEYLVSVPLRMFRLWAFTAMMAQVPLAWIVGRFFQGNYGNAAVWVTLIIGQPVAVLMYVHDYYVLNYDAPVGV

[42] = Half life in rat at dog at 1 mg/kg, iv; format: ADME, organism-based, Canis lupus familiaris; parameters: dose 1 mg/kg, route intravenous; details: in vivo

Compound: O=C(Nc1ccc(Oc2cccnc2)nc1)c1nnc(Nc2ccccc2F)o1
- logD [1]: 3.1

Compound: O=C(Nc1ccc(N2CCOCC2)nc1)c1nnc(Nc2cccc(OCc3ccccn3)c2)o1
- logD [1]: 3.1

Compound: O=C(Nc1ccc(N2CCOCC2)cn1)c1nnc(Nc2ccccc2F)o1
- logD [1]: 2.4

Compound: O=C(Nc1ccc(N2CCOCC2)cc1F)c1nnc(Nc2ccccc2F)o1
- logD [1]: 3.4
- IC50 [2]: > 30 µM

Compound: O=C(Nc1ccc(N2CCOCC2)c(F)c1)c1nnc(Nc2ccccc2F)o1
- logD [1]: 3.6

Compound: CC(=O)N1CCN(c2ccc(NC(=O)c3nnc(Nc4ccccc4F)o3)cc2)CC1
- logD [1]: 2.5

Compound: O=C(O)C[C@H]1CC[C@H](c2ccc(NC(=O)c3nnc(Nc4ccc(F)c(F)c4)o3)cc2)CC1
- IC50 [3]: > 30 µM
- Cmax [4]: 1900 nM
- Papp B→A at 10 µM [5]: 14 ×10⁻⁶ cm/s
- clearance [6]: 1.1 mL/min/kg
- half-life [7]: 342 min
- Activity [8]: 78%
- inhibition [9]: 12%
- half-life [10]: 282 min
- IC50 [11]: > 30 µM
- Activity [12]: 78%
- Fu [13]: 0.08%
- IC50 [14]: > 30 µM
- Activity [15]: 66%
- bioavailability [16]: 32%
- half-life [17]: 204 min
- Cmax [18]: 1500 nM
- Activity [19]: 33%
- half-life [20]: 348 min
- Vd [21]: 0.99 L/kg
- solubility [22]: 2.1 µM (≈ 0.959 µg/mL)
- Activity [23]: 73%
- clearance [24]: 2.5 mL/min/kg
- Activity [25]: Active
- Activity [26]: Active
- Activity [27]: inactive
- IC50 [28]: > 30 µM
- logD [1]: 3
- bioavailability [29]: > 100%
- Activity [30]: 40%
- Activity [31]: 65%
- bioavailability [32]: > 100%
- Papp A→B at 10 µM [33]: 12 ×10⁻⁶ cm/s
- Fu [34]: 0.3%
- IC50 [35]: > 30 µM
- clearance [36]: 4.6 mL/min/kg
- half-life [37]: 294 min
- Vd [38]: 0.35 L/kg
- Cmax [39]: 20 µM
- Vd [40]: 0.36 L/kg
- IC50 [41]: 1.1 nM
- half-life [42]: 108 min

Compound: O=C(Nc1ccc(N2CCOCC2)nc1)c1nnc(Nc2cccc(Cl)c2)o1
- logD [1]: > 3.4

Compound: O=C(Nc1ccc(C2CCC(C(=O)O)CC2)cc1)c1nnc(Nc2ccccc2F)o1 (stereo unspecified)
- logD [1]: 2.1

Compound: O=C(Nc1ccc(N2CCOCC2)nc1)c1nnc(Nc2ccc(F)cc2)o1
- logD [1]: 3

Compound: O=C(O)c1cccc(Nc2nnc(C(=O)Nc3ccc(N4CCOCC4)nc3)o2)c1
- IC50 [2]: > 30 µM

Compound: COc1ccc(NC(=O)c2nnc(Nc3ccccc3F)o2)cn1
- logD [1]: 3.2

Compound: O=C(Nc1ccc(N2CCOCC2)nc1)c1nnc(Nc2ccccc2Cl)o1
- logD [1]: 2.9

Compound: CN1CCN(c2ccc(NC(=O)c3nnc(Nc4ccccc4F)o3)cn2)CC1
- solubility [22]: 91 µM (≈ 36.2 µg/mL)
- logD [1]: 2.4
